Measured values taken from ChEMBL document CHEMBL3217636, “Design, synthesis and biological evaluation of novel benzothiazole and triazole analogs as falcipain inhibitors” (Medchemcomm, 2011).
pIC50: −log10 of the molar value. Active and inactive are the calls of the source. The calls are words filed in the database; no cut-off is given here.

What was measured:
[1] = Inhibition of Plasmodium falciparum recombinant falcipain 2
[2] = Inhibition of Plasmodium falciparum recombinant falcipain 3
Plasmodium falciparum [3] = assay: Antimalarial activity against Plasmodium falciparum W2; assay type: functional, organism-based
Cathepsin K = biological target: T1, Cathepsin K (Homo sapiens, UniProt P43235); assay: Inhibition of human cathepsin K
T1 sequence (P43235 whole entry): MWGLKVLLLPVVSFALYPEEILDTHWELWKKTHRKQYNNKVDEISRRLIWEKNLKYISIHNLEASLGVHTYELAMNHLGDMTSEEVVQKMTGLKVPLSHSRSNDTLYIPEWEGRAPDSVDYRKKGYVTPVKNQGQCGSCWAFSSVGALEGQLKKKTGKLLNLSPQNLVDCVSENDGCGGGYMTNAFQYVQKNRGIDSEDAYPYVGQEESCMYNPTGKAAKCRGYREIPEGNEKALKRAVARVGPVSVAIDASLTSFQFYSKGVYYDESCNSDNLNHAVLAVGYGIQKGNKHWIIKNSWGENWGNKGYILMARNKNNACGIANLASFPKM

Procathepsin L = Procathepsin L (Homo sapiens, UniProt P07711); assay: Inhibition of human cathepsin L1
Cathepsin B = Cathepsin B (Homo sapiens, UniProt P07858); assay: Inhibition of human cathepsin B
Plasmodium falciparum [4] = assay: Antimalarial activity against Plasmodium falciparum W2 at 10 uM; assay type: functional, organism-based

Sequence of Procathepsin L (P07711 whole entry): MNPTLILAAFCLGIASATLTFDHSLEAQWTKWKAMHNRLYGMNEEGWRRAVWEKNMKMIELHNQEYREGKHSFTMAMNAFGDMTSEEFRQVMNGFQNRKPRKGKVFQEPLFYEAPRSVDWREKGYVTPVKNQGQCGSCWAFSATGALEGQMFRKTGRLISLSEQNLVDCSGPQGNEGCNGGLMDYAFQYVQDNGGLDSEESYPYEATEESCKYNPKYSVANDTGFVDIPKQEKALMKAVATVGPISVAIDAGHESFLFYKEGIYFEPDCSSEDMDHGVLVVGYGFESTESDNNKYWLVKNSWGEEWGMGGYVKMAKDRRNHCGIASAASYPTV

## O=C(CSc1nc2ccc(NS(=O)(=O)c3ccccc3[N+](=O)[O-])cc2s1)c1ccccc1
[1]
  pIC50: 4.95

## Nc1ccc2nc(SCC(=O)c3ccccc3)sc2c1
[1]
  pIC50: < 4.30

## CCOC(=O)CSc1nc2ccc(NS(=O)(=O)c3ccc(F)cc3)cc2s1
[1]
  pIC50: < 4.30

## CCOC(=O)CSc1nc2ccc(N)cc2s1
[1]
  pIC50: < 4.30

## Cc1cc(NC(=O)Cn2cc(-c3ccc(C=O)cc3)nn2)no1
[1]
  pIC50: < 4.30

## CC(C)[C@@H](N)C(=O)Nc1ccc2nc(SCC(=O)c3ccc4ccccc4c3)sc2c1
[1]
  pIC50: 4.91
[2]
  pIC50: 4.86
Plasmodium falciparum [3]
  pIC50: 5.33
Cathepsin K
  pIC50: 4.84
Procathepsin L
  pIC50: 5.23
Cathepsin B
  pIC50: < 4.30

## CCCCCc1ccc(-c2cn(CC(=O)Nc3cc(C)on3)nn2)cc1
[1]
  pIC50: 4.41

## CC(=O)Nc1ccc2nc(SCC(=O)Nc3ccc(C)cc3)sc2c1
[1]
  pIC50: 4.86

## Cc1cc(NC(=O)Cn2cc(-c3ccccc3)nn2)no1
[1]
  pIC50: < 4.30

## Cc1cc(NC(=O)Cn2cc(-c3cccc4ccccc34)nn2)no1
[1]
  pIC50: < 4.30

## COc1ccc2cc(-c3cn(CC(=O)Nc4cc(C)on4)nn3)ccc2c1
[1]
  pIC50: 4.42

## O=C(CSc1nc2ccc(NS(=O)(=O)c3ccc(OC(F)(F)F)cc3)cc2s1)c1ccccc1
[1]
  pIC50: 4.45

## Nc1ccc2nc(SCC(=O)c3ccc4ccccc4c3)sc2c1
[1]
  pIC50: < 4.30

## N[C@@H](C(=O)Nc1ccc2nc(SCC(=O)c3ccc4ccccc4c3)sc2c1)c1ccccc1
[1]
  pIC50: 4.89
[2]
  pIC50: 4.83
Plasmodium falciparum [4]
  Activity: inactive
Cathepsin K
  pIC50: 5.25
Procathepsin L
  pIC50: 5.36
Cathepsin B
  pIC50: < 4.30

## O=C(CSc1nc2ccc(NS(=O)(=O)c3ccc(F)cc3)cc2s1)c1ccc2ccccc2c1
[1]
  pIC50: 4.36

## Cc1ccc(NC(=O)CSc2nc3ccc(NC(=O)[C@H](N)C(C)C)cc3s2)cc1
[1]
  pIC50: < 4.30

## O=C(CSc1nc2ccc(NS(=O)(=O)c3ccc4ccncc4c3)cc2s1)c1ccc2ccccc2c1
[1]
  pIC50: < 4.30
Plasmodium falciparum [3]
  pIC50: 5.68

## CC(C)C[C@H](NC(=O)[C@H]1O[C@@H]1C(=O)O)C(=O)NCCCCN=C(N)N [E-64]
[1]
  pIC50: 7.52
Cathepsin K
  pIC50: 8.40
Procathepsin L
  pIC50: 7.80
Cathepsin B
  pIC50: 8.30

## Cc1cc(NC(=O)Cn2cc(COc3ccccc3)nn2)no1
[1]
  pIC50: < 4.30

## Cc1ccc(NC(=O)CSc2nc3ccc(N)cc3s2)cc1
[1]
  pIC50: < 4.30

## Cc1ccc(NC(=O)CSc2nc3ccc(NC(=O)[C@H](N)c4ccccc4)cc3s2)cc1
[1]
  pIC50: < 4.30

## O=C(CSc1nc2ccc(NS(=O)(=O)c3ccc(OC(F)(F)F)cc3)cc2s1)c1ccc2ccccc2c1
[1]
  pIC50: < 4.30

## CC(=O)Nc1ccc2nc(SCC(=O)c3ccc4ccccc4c3)sc2c1
[1]
  pIC50: 4.88

## CCOC(=O)CSc1nc2ccc(NS(=O)(=O)c3ccc4ccncc4c3)cc2s1
[1]
  pIC50: 4.50

## Cc1ccc(NC(=O)CSc2nc3ccc(NS(=O)(=O)c4ccc(F)cc4)cc3s2)cc1
[1]
  pIC50: 4.78

## Cc1ccc(NC(=O)CSc2nc3ccc(NS(=O)(=O)c4ccc(OC(F)(F)F)cc4)cc3s2)cc1
[1]
  pIC50: 4.77

## Cc1cccc(-c2cn(CC(=O)Nc3cc(C)on3)nn2)c1
[1]
  pIC50: < 4.30

## Cc1cc(NC(=O)Cn2cc(CCCCl)nn2)no1
[1]
  pIC50: < 4.30

## COc1ccc(C(=O)Nc2ccc3nc(SCC(=O)c4ccccc4)sc3c2)cc1
[1]
  pIC50: 4.99
[2]
  pIC50: < 4.30
Plasmodium falciparum [3]
  pIC50: < 5.00
Cathepsin K
  pIC50: 5.21
Procathepsin L
  pIC50: 4.50
Cathepsin B
  pIC50: 4.75

## CCOC(=O)CSc1nc2ccc(NS(=O)(=O)CC(F)(F)F)cc2s1
[1]
  pIC50: < 4.30

## C[C@@H]1CC[C@H]2[C@@H](C)C(=O)O[C@@H]3O[C@@]4(C)CC[C@@H]1[C@]32OO4 [ARTEMISININ]
Plasmodium falciparum [3]
  pIC50: 7.92

## Cc1cc(NC(=O)Cn2cc(-c3ccc(Oc4ccccc4)cc3)nn2)no1
[1]
  pIC50: 4.70
[2]
  pIC50: 4.40

## Cc1cc(NC(=O)Cn2cc(-c3cccnc3)nn2)no1
[1]
  pIC50: < 4.30

## Cc1cc(NC(=O)Cn2cc(-c3cccc(O)c3)nn2)no1
[1]
  pIC50: < 4.30

## Cc1cc(NC(=O)Cn2cc(-c3ccc(F)cc3)nn2)no1
[1]
  pIC50: < 4.30

## CCOC(=O)CSc1nc2ccc(NS(=O)(=O)c3ccccc3[N+](=O)[O-])cc2s1
[1]
  pIC50: < 4.30

## Cc1ccc(NC(=O)CSc2nc3ccc(NS(=O)(=O)c4ccc5ccncc5c4)cc3s2)cc1
[1]
  pIC50: 4.86

## Cc1ccc(NC(=O)CSc2nc3ccc(NS(=O)(=O)CC(F)(F)F)cc3s2)cc1
[1]
  pIC50: 4.61

## Cc1cc(NC(=O)Cn2nnc(-c3ccc(NC(=O)c4ccc(F)cc4)cc3)n2)no1
[1]
  pIC50: 5.66
[2]
  pIC50: 5.31
Plasmodium falciparum [3]
  pIC50: < 5.00
Cathepsin K
  pIC50: 5.42
Procathepsin L
  pIC50: 4.61
Cathepsin B
  pIC50: 4.43
